The subject of one experiment is anesthetized dogs. Briefly: renal vasodilator activity test in anesthetized dogs (infusion). Format: in vivo, dog. The conditions noted are these: for renal vasodilator activity: primary test period of the renal anesthetized dog screening protocol. An excerpt: Representative specific results are included in the examples.
The subject of experiment [1] is angiotensin coverting enzyme. Briefly: angiotensin converting enzyme inhibiting activity. Format: in vivo. The settings on record: at 10 times its renally effective dose.
Experiment [2] can be described thus: bradycardic effect (heart rate), test not stated. The conditions noted are these: in vivo.
Experiment [3] concerns spontaneously hypertensive rats. Briefly: spontaneously hypertensive rat (SHR) diuretic naturetic assay. The format is in vivo. The settings on record: 25 and 50 mg/kg i.p. The protocol:
In this test, male, Okamato-Aoki strain, spontaneously hypertensive rats, aged 16-19 weeks, are fasted, then, the following afternoon, the first dose of test compound is administered, along with a 25 ml/kg p.o. load of normal saline. The animals are, then, placed in metabolism cages and urine collected for three hours for analysis. Indirect systolic blood pressure and heart rate are measured by a tail-cuff. An identical second dose of test compound is administered. After two hours, blood pressure and heart rate are again tested. The test compound is usually administered p.o. or i.p. in saline with 0.02% ascorbic acid.

Experiment [4] relates to dopamine-sensitive adenylate cyclase system. Briefly: dopamine-sensitive adenylate cyclase system in vitro. Format: biochemical.
The next experiment concerns toad bladder. Nature of the experiment: toad bladder anti-ADH assay.
Setting [5] is: two anesthetized dogs, 3, 30 and 300 μg/kg/min.

Where a name gives a salt, the structure may show the parent alone.

On to `O=C(O)CN1CCC[C@H]1C(=O)N[C@@H](Cc1ccccc1)C(=O)N1CCC[C@H]1C(=O)O` [Example 2 sulfate, N-carboxymethyl-L-prolyl-L-phenylalanyl-L-proline], for which the “renal blood flow (qualitative)” value in the experiment with anesthetized dogs (30 and 300 μg/kg/min) is reported as “increased renal blood flow”.
As for `O=C(O)CN1CCC[C@H]1C(=O)NCCC(=O)N1CCC[C@H]1C(=O)O.O=S(=O)(O)O` [Example 3, N-carboxymethyl-L-prolyl-β-alanyl-L-proline sulfate], in the experiment on anesthetized dogs (setting [5]), the “renal blood flow (qualitative)” value is “increased renal blood flow” and the “renal vascular resistance (qualitative)” value was “decreased renal vascular resistance”. Also, the “angiotensin converting enzyme inhibiting activity” value in experiment [1] is given as “did not have angiotensin coverting enzyme inhibiting activity”. Moreover, the bradycardic effect entry in experiment [2] was “weak bradycardic effect”. Moreover, the “Na+, K+ or urine excretion (qualitative)” value in experiment [3] is “significant increase”. The “stimulation or antagonism of dopamine-sensitive adenylate cyclase” value in experiment [4] is recorded as “did not stimulate or antagonize”. In the experiment on toad bladder, the anti-ADH activity result is “nor was it active”.
As to `CC(C(=O)O)N1CCC[C@H]1C(=O)NCCC(=O)N1CCC[C@H]1C(=O)O` (stereo partly drawn) [N-(1-carboxyethyl)-L-prolyl-β-alanyl-L-proline], the renal vasodilator activity result in the experiment with anesthetized dogs is “inactive”.
As for `NCCCC[C@H](NC(=O)[C@@H]1CCCN1CC(=O)O)C(=O)N1CCC[C@H]1C(=O)O` [N-carboxymethyl-L-prolyl-L-lysyl-L-proline], the renal vasodilator activity result in the experiment on anesthetized dogs is “inactive”.
Same read-out and setting: in the case of `O=C(O)CN1CCC[C@H]1C(=O)NCC(=O)N1CCC[C@H]1C(=O)O` [N-carboxymethyl-prolyl-glycyl-L-proline] it was “inactive”.
`NCCc1ccc(O)c(O)c1` [dopamine] showed an RVR-ED15 in the experiment with anesthetized dogs (secondary test in three dogs, i.v.) of 3.5 µg/kg.
